From paper PMC7905067, “Design and Immunological Evaluation of a Hybrid Peptide as a Potent TLR2 Agonist by Structure-Based Virtual Screening” (Frontiers in Cell and Developmental Biology, 2021)
“Also recorded” adds a separate entry of the source.

What was measured:
RAW264.7 cells = test: In vitro immunomodulatory activity: cytokine secretion by RAW264.7 cells (ELISA); type: cell-based, murine; conditions: 10 μg/mL, 12 h
Description: RAW264.7 cells were seeded at a density of 1.0 × 10^6 cell/mL and treated with (10 μg/mL) or without peptides in each well of a 6-well plate for 12 h at 37°C in a humidified incubator with 5% CO2. After treatment, TNF-α, IL-6 and IL-1β secretion in the cell supernatants was assessed using ELISA kits according to the manufacturer’s instructions.

[1] = system: CTX-immunosuppressed murine model; test: Body weight and immune organ indices in CTX-immunosuppressed mice; type: in vivo, BALB/c mice; conditions: CTX 80 mg/kg i.p. 3 days, peptide 10 mg/kg i.p. days 4-10, n = 12
Description: BALB/c mice (female, 6–8 weeks; Charles River, Beijing, China) used in this study were maintained in a specific-pathogen-free facility (55 ± 10% humidity and 22 ± 1°C) during the experiments. These experiments were conducted with approval from the Institutional Animal Care and Use Committee of China Agricultural University (certificate of the Beijing Laboratory Animal employee, ID: 18086).
(§1) After a 7-day adaptation period, the mice were randomly divided into five groups (n = 12 in each group): (1) control group: physiological saline was injected intraperitoneally once daily; (2) cyclophosphamide (CTX) group: CTX (80 mg/kg mouse weight; Sigma-Aldrich, St. Louis, MO, United States) was injected intraperitoneally once daily for the first 3 days. […] From days 4 to 10, peptide (10 mg/kg mouse weight) was injected intraperitoneally into mice once daily. Twenty-four hours after the last drug administration, all the mice were weighed and then euthanized, and their tissues and blood were collected for further study. The body weight index was calculated according to the formula:
Index(%)=finalbodyweight-initalbodyweight/initialbodyweight×100
The thymus and spleen indices were measured by the following formula:
Index(mg/g)=weightofthymusorspleen/bodyweight

[2] = system: T lymphocyte subpopulations (CD4 +, CD8 +), mouse peripheral blood; test: Peripheral blood T lymphocyte subpopulations by flow cytometry; type: in vivo, BALB/c mice; conditions: CTX 80 mg/kg i.p. 3 days; peptide 10 mg/kg i.p. days 4-10; three biological replicates
Description: as §1, with “formula: […]” for “formula:”
Erythrocytes were aseptically obtained from the different groups of mouse peripheral blood and lysed with RBC lysis buffer. The remaining cells were washed with PBS and resuspended in PBS. The cells were combined with peridinin-chlorophyll-protein complex (PerCP)-conjugated anti-mouse CD3 +, allophycocyanin (APC)-conjugated anti-mouse CD4 +, and fluorescein isothiocyanate (FITC)-conjugated anti-mouse CD8 + (BD Pharmingen, United States) for 30 min at 4°C. The T lymphocyte subpopulations were analyzed by flow cytometry.

[3] = system: MHC class II, mouse PBMCs; test: DC maturation: MHC-II expression by flow cytometry; type: in vivo, BALB/c mice; conditions: CTX 80 mg/kg i.p. 3 days; peptide 10 mg/kg i.p. days 4-10; three biological replicates
Description: as §1, with “formula: […]” for “formula:”
Mouse peripheral blood mononuclear cells (PBMCs) were obtained from the different groups of mice through Ficoll density gradient centrifugation. The cells were resuspended in PBS with 5% FBS and incubated with 10% (v/v) normal goat serum for 15 min at 4°C. The cells were combined with FITC-conjugated antibodies specific for MHC class II (MHC-II; BD Pharmingen, United States). The surface expression of MHC-II was determined by flow cytometry.

[4] = system: serum TNF-α, IL-6, and IL-1β; test: Serum cytokines by ELISA in CTX-treated mice; type: in vivo, BALB/c mice; conditions: CTX 80 mg/kg i.p. 3 days, peptide 10 mg/kg i.p. days 4-10, three biological replicates
Description: as §1, with “formula: […]” for “formula:”
(§2) Serum was collected from blood and then assayed by ELISA kits according to the protocol supplied by the manufacturer (eBioscience, San Diego, United States) to determine the secretion of IgG, IgA, IgM, TNF-α, IL-6, and IL-1β.

serum IgA, IgG, and IgM = test: Serum immunoglobulins by ELISA in CTX-treated mice; type: in vivo, BALB/c mice; conditions: CTX 80 mg/kg i.p. 3 days, peptide 10 mg/kg i.p. days 4-10, three biological replicates
Description: as §1, with “formula: […]” for “formula:”
as §2

TLR2, RAW264.7 cells [5] = test: TLR2 blocking experiment (anti-mouse TLR2 C9A12, then LTPa); type: cell-based; conditions: LTPa 10 μg/mL, 24 h; with or without TLR2 mAb (C9A12) 1 h before; ELISA
Description: For TLR2 blocking experiments, RAW264.7 cells were cultured in 24-well plates overnight at 37°C. The mouse IgG2a isotype control antibody or anti-mouse TLR2 (C9A12; InvivoGen, San Diego, CA, United States) was added to the cell cultures 1 h before being treated with LTPa for 24 h at 37°C. Then, the levels of TNF-α, IL-6, and IL-1β in the culture supernatant were analyzed.

TLR2 = test: Surface plasmon resonance, immobilized TLR2; type: binding; conditions: Biacore X100, CM5 chip, PBS containing 0.05% Tween 20; 0, 1.25, 2.5, 5, and 10 mM
Description: Surface plasmon resonance (SPR) experiments were carried out using a Biacore X100 instrument (GE Healthcare, Pittsburgh, PA, United States) by standard amine coupling. TLR2 (R&D Systems, Minneapolis, MN, United States) was amine-coupled to a Biacore CM5 sensor chip (Bio-Rad). The peptide was diluted to varying concentrations (0, 1.25, 2.5, 5, and 10 mM) in running buffer (PBS containing 0.05% Tween 20) and run sequentially over immobilized TLR2. Binding curves were processed for the initial injection alignment and baseline, and a reference-subtracted sensorgram was globally fitted to the curves to describe a homogeneous 1:1 model. Data analysis was conducted using ProteOn manager software (version 2.0). Data from the protein surfaces were grouped together to fit the association kinetic rate constant (Ka) and the dissociation rate constant (Kd). The equilibrium dissociation constant (KD) for the peptide-TLR2 interaction was calculated as follows: […]

TLR2, RAW264.7 cells [6] = test: Cell surface TLR2 cluster formation by confocal laser-scanning microscopy; type: cell-based, mouse; conditions: LTPa 10 μg/mL, 1 h, 37°C; clusters = fluorescence > 40 arbitrary units; three independent experiments
Description: RAW264.7 cells were treated with or without 10 μg/mL LTPa for 1 h at 37°C. The cells were then incubated (30 min, on ice) with anti-mouse monoclonal antibody TLR2 or isotype control (IgG) (eBioscience) before washing with PBS. Then, the cells were stained with a FITC–conjugated anti-mouse IgG antibody for 30 min on ice (Jackson Laboratories). After washing with PBS and fixing with paraformaldehyde, the cell nuclei were stained with DAPI (1:500 dilution in PBS) (Sigma-Aldrich). The cells were then imaged with the Leica TCS SP5 confocal system (Leica Microsystems Ltd.). LAS AF software was used to process the images and quantify the fluorescence. In addition, to generate a fluorescence histogram profile, a line was drawn along the cell surface. Fluorescence intensities higher than 40 arbitrary units (isotype control staining) were considered clusters of TLR2 molecules.

[7] = 37°C, ELISA, three independent experiments

IGKEFKRIVQRIKDFLRNLVPRTERKDVT [LTPa, hybrid peptide combining LL-37a and TP5]
IL-1β secretion (RAW264.7 cells; [7]): remarkable increases | IL-6 secretion (RAW264.7 cells; [7]): remarkable increases | TNF-α secretion (RAW264.7 cells; [7]): remarkable increases | secretion of TNF-α, IL-6, and IL-1β (comparison between peptides) (RAW264.7 cells; vs the other peptides tested): significantly increased the secretion of TNF-α, IL-6, and IL-1β in comparison with the other peptides tested | spleen index [1]: significantly higher than those in the LL-37-treated and TP5-treated groups | thymus index [1]: significantly higher than those in the LL-37-treated and TP5-treated groups | bodyweight ([1]; CTX group vs control): improved bodyweight rapidly; also recorded: significantly higher than that in the parental peptide (LL-37 and TP5)-treated groups | proportions of CD4 + and CD8 + T lymphocytes [2]: significantly higher than that in the LL-37-treated group and similar to that in the TP5-treated group | expression of MHC-II [3]: increased by LTPa treatment; also recorded: significantly higher than that in the LL-37-treated and TP5-treated groups | serum IL-1β level [4]: higher than those in the TP5- or LL-37-treated groups; also recorded: efficiently reversed the declines | serum IL-6 level [4]: higher than those in the TP5- or LL-37-treated groups; also recorded: efficiently reversed the declines | serum TNF-α level [4]: higher than those in the TP5- or LL-37-treated groups; also recorded: efficiently reversed the declines | serum IgA level (serum IgA, IgG, and IgM): significantly higher total serum IgA, IgG, and IgM levels than mice in the TP5- or LL-37-treated groups | serum IgG level (serum IgA, IgG, and IgM): significantly higher total serum IgA, IgG, and IgM levels than mice in the TP5- or LL-37-treated groups | serum IgM level (serum IgA, IgG, and IgM): significantly higher total serum IgA, IgG, and IgM levels than mice in the TP5- or LL-37-treated groups | TNF-α, IL-6, and IL-1β production (TLR2, RAW264.7 cells [5]): significantly caused increase levels of TNF-α, IL-6, and IL-1β | binding to TLR2 (SPR) (TLR2): could effectively bind to the TLR2 | TLR2 clusters per micrometer on the cell surface (TLR2, RAW264.7 cells [6]): significantly increased the number of major TLR2 clusters per micrometer on the cell surface
